Common to all, as to assay: ATP consumption, coupled red luciferase luminescence
Holding throughout (format): biochemical

The target in assay [1] is T1, sMtCK (6xHis-sarcomeric creatine kinase, pUS01) (Homo sapiens, UniProt P17540).
T1 construct: gene CKMT2; 6xHis, pET3b plasmid pUS01 (Schlattner), E. coli BL21(DE3)
Conditions: 5 mM creatine, 50 uM ATP, 4 mM MgSO4, pH 8, 37 °C, 30 min.

Assay [2] addresses T2, uMtCK (6xHis-ubiquitous creatine kinase, pUS04) (Homo sapiens, UniProt P12532).
T2 construct: gene CKMT1A; 6xHis, pET3b plasmid pUS04 (Schlattner), E. coli BL21(DE3)
Conditions: 5 mM creatine, 50 uM ATP, 4 mM MgSO4, pH 8, 37 °C, 30 min.

Assay [3] has as its target NEK7 (6xHis-NEK7) (Homo sapiens, UniProt Q8TDX7). Conditions: 1 uM ATP, protein substrates NEK9(764-976), MAT1 or CC2D1A(501-940), 4 mM MgSO4, pH 8, 37 °C.

NEK7 (6xHis-NEK7), sequence (Q8TDX7 whole entry): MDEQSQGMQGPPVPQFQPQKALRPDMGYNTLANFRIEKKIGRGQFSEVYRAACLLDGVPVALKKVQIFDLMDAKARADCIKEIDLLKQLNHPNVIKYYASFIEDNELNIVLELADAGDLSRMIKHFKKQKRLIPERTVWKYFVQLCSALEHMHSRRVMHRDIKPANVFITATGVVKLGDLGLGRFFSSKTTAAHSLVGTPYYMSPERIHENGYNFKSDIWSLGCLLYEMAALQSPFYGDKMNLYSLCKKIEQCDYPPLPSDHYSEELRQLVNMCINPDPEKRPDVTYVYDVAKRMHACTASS

With `Nc1ncnc2c1ncn2[C@@H]1O[C@H](COP(=O)(O)OP(=O)(O)OP(=O)(O)O)[C@@H](O)[C@H]1O` [ATP], the “ATP consumption, coupled red luciferase luminescence” value in assay [1] is “ATP was consumed only in the presence of creatine kinase and creatine”; in assay [2] it was “ATP was consumed only in the presence of creatine kinase and creatine”; in assay [3] it was “ATP consumption by NEK7, due to its phosphorylation of substrate proteins/domains”.

For the compound `CN(CC(=O)O)C(=N)N` [creatine], the “ATP consumption, coupled red luciferase luminescence” value in assay [1] was “when creatine was added, the light emission was significantly decreased”.
